System: Hep G2 hepatoma cells
Assay: In vitro cancer cell proliferation assay (sulforhodamine B), Hep G2
Type: cell-based
Settings: Homo sapiens, HepG2, 144 h; lovastatin 2 μM alone; incubation for 6 days; read-out: inhibited growth of Hep G2 cells
Experimental: Hep G2 hepatoma cells were seeded in a 96-well culture plate (2000 cells/well) and cultured overnight in 100 μl of complete DMEM.

SMILES: CC[C@H](C)C(=O)O[C@H]1C[C@@H](C)C=C2C=C[C@H](C)[C@H](CC[C@@H]3C[C@@H](O)CC(=O)O3)[C@H]21 [lovastatin]
- inhibition at 2 µM: 11.5%
